Assay results: US20240189240A1, “PHARMACEUTICAL COMPOSITIONS COMPRISING ZOLMITRIPTAN” (MapLight Therapeutics, Inc., priority 2021, published 2024)

What was measured:
[1] = CSF levels after i.p. dosing in CD-1 mice; details: zolmitriptan 3 and 10 mg/kg i.p., male CD-1 mice
[2] = CSF levels after i.p. dosing in c57/Bl6 mice; type: in vivo, mouse
[3] = target: T1, rat recombinant 5-HT1b (r5-HT1b) receptors (Rattus norvegicus, UniProt P28564); assay: SPA-based 35S-GTPγS binding assay (functional); type: biochemical
T1 construct: expressed in transfected cells
Procedure: In this study in vitro binding assays were conducted to measure the affinity of zolmitriptan and its active metabolite NDMZ to rat and human 5-HT1B receptors.
Zolmitriptan was tested in a SPA-based 35S-GTPγS binding assay in cells expressing human 5-HT1b (h5-HT1b) receptors or rat recombinant 5-HT1b (r5-HT1b) receptors at ten concentrations in duplicate.

5-HT1b receptor = 5-HT1b receptor (Homo sapiens, UniProt P28222); assay: 5-HT1b receptor occupancy and efficacy model, human dose estimate
Procedure: Specifically, 5-HT1b receptor occupancy and efficacy models measured potency of zolmitriptan and NMDZ at the 5-HT1b receptor and the ratio of zolmitriptan: NDMZ in human CSF. The 5-HT1b receptor efficacy model was used to predict the level of 5-HT1b activation (i.e., efficacy) by both zolmitriptan and NDMZ based on the concentration of zolmitriptan in the CSF. From this target zolmitriptan dose ranges required to achieve an effective CSF exposures in humans were calculated.
Using classical receptor theory, the receptor occupancy when considering two ligands (i.e., entities) can be predicted using the following relationship:
Total % occupancy=(% occupancy by A)+{[100%−(% occupancy by A)]×(% occupancy by B)} when considering a fixed concentration of both A and B.
Total % Efficacy={[Zolmitriptan]/([Zolmitriptan]+Ki,Z)}+(100−{[Zolmitriptan]/([Zolmitriptan]+Ki,Z)}×{[NDMZ]/([NDMZ]+Ki,N)}

CD-1 mice = assay: Resident-Intruder (RI) assay of aggression; type: in vivo, mouse; details: 10 mg/kg
Procedure: Correspondingly, the RI assay has been used preclinically to study the effect of drugs on rodent aggression (Miczek et al., 2001). The RI assay typically relies on the interpretation and scoring of offensive (resident animal) behavior patterns and may also include analysis of defensive (intruder animal) behavior patterns as well. […] Attack time was measured over a 5 min period as a cross over design.

5-HT1b receptor, sequence (P28222 whole entry): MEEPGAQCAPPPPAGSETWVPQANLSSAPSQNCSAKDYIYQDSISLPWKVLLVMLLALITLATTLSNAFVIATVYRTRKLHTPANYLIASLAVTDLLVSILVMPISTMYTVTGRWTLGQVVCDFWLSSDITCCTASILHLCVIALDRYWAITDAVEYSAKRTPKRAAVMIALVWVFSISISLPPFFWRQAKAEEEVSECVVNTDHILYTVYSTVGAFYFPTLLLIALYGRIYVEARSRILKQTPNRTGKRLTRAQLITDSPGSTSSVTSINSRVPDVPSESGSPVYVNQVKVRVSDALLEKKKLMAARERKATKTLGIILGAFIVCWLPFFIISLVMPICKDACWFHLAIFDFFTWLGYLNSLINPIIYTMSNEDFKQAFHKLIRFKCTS
T1 sequence (P28564 whole entry): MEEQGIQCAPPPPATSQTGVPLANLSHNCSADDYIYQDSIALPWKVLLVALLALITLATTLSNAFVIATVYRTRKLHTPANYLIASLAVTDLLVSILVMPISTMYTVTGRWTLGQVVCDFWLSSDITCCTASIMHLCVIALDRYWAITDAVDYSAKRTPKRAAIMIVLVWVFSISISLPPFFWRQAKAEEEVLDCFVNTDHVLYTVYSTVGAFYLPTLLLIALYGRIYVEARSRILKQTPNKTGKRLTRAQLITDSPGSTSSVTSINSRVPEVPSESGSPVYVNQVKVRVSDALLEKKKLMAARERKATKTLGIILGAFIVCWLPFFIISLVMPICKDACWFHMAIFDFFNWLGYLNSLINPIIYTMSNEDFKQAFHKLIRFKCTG

CNCCc1c[nH]c2ccc(C[C@H]3COC(=O)N3)cc12 [NDMZ, N-desmethyl zolmitriptan]
metabolite level after zolmitriptan dosing [1]: below the lower limit of quantification | metabolite level in CSF after zolmitriptan dosing ([2]; zolmitriptan 10 mg/kg i.p., male c57/Bl6 mice): below the lower limit of quantification

CN(C)CCc1c[nH]c2ccc(C[C@H]3COC(=O)N3)cc12 [Zolmitriptan, (4S)-4-[[3-[2-(dimethylamino)ethyl]-1H-indol-5-yl]methyl]-1,3-oxazolidin-2-one]
activity in GTPgS at CSF Cmax (EC36) ([3]; CSF Cmax 18.8 nM, CD-1 mice, 3 mg/Kg i.p.): 36% | activity in GTPgS at CSF Cmax (EC65) ([3]; CSF Cmax 62 nM, c57/Bl6 mice, 10 mg/Kg i.p.): 65% | CSF levels required for a therapeutic effect in humans, lower than in mice (5-HT1b receptor; based on human vs rat 5-HT1b EC50): about 8.3 fold | concentration for 50% Total Efficacy relative to the zolmitriptan EC50 (5-HT1b receptor; combined effect of the metabolite): 3.7 fold | EC50 (5-HT1b receptor; read-out: concentration of zolmitriptan in human CSF predicted to induce 50% efficacy (EC50) of 5-HT1b by zolmitriptan and NDMZ, model, zolmitriptan: NDMZ 1.0:0.75): 1.09 nM | CSF Cmax ([2]; 10 mg/Kg i.p., c57/Bl6 ASD mouse model): 62 nM | reduction in attack time compared to risperidone (0.03 mg/kg) and vehicle control (CD-1 mice): greater reduction in attack time
